Test results taken from patent US7276511B2, “Benzylamine derivative” (Zeria Pharmaceutical Co., Ltd., priority 2003, dated 2007).
Counter-ions that a name gives are not always drawn.

Key:
[1] = biological target: T1, NK-1 receptor (Homo sapiens, UniProt P25103); details: known from Patent Document 4; cited from earlier work
Target sequence in this assay (P25103 whole entry, species assumed): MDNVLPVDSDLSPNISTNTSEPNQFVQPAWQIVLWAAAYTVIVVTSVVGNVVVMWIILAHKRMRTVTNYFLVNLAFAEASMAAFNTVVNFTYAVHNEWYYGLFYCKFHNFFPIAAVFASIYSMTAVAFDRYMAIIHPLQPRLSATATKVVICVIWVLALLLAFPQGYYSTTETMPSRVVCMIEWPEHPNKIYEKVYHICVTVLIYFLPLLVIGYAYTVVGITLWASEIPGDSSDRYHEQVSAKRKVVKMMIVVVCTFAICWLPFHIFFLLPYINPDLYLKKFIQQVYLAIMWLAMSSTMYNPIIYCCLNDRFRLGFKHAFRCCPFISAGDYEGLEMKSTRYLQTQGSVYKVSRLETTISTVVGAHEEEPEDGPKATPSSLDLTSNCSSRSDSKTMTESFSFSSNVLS

[2] = biological target: T2, NK-2 receptor (Homo sapiens, UniProt P21452); details: in vitro for (B); known from Patent Documents 2 and 4; cited from earlier work
T2 sequence (P21452 1-398): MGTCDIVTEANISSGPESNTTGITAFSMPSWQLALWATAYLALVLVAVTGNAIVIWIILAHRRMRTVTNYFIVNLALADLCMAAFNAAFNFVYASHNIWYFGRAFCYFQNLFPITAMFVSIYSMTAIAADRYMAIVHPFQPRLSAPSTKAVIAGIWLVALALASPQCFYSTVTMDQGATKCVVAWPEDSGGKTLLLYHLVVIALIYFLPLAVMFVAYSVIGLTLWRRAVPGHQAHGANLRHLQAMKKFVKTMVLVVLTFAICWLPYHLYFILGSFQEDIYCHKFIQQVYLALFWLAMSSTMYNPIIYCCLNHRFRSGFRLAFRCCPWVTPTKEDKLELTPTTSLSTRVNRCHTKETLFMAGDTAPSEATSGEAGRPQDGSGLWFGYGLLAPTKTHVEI

[3] = biological target: T1, NK-1 receptor; assay: NK-1 receptor-binding test ([3H]-Substance P, hNK1-CHO cells); set-up: expressed in transfected cells; host or cells: CHO-K1 cells (ATCC: CCL-61), G418-resistant, hNK1-CHO; details: Table 4; inhibition of [3H]-Substance P (0.5 nM) binding to hNK1-CHO cells, pseudo-Hill analysis; read-out: NK-1
Protocol: 1. NK-1 Receptor-binding Test
1) Preparation of Human NK-1 Receptor Expression Cells
FuGene 6 transfection reagent (Boegringer Mannheim) (3 μL) was diluted in an F-12 culture broth (97 μL), and pCR3.1 plasmid to which human NK-1 receptor cDNA had been introduced (Invitrogen) (10 μL) was added thereto. The mixture was mixed and incubated for 15 minutes (transfection reagent). CHO-K1 cells (ATCC: CCL-61) were cultured for 24 hours, and the whole reagent prepared above was added to the cultured CHO-K1 cells ([…]). Subsequently, culture was performed in the presence of G418 (Stratagene), and the resistant cells were employed as cells into which human NK-1 receptor gene was introduced (hNK1-CHO).
2) Subcultivation of hNK1-CHO Cells
The hNK1-CHO cells were treated with trypsin-EDTA and subcultivated in an F-12 culture broth (containing 10% fetal bovine serum, 10 mM HEPES, 100 U/mL, penicillin, 100 μg/mL streptmycin, 400 μg/mL G418) in a 75-cm^2 flask (FALCON). Cells to be employed in the receptor-binding experiment were added to a 24-well plate (IWAKI) at 1×10^5 cells/well, and subcultured for 48 hours at 37° C. under 95% […] and 5% CO2.
3) Receptor-binding Experiment
When the hNK1-CHO cells became subconfluent on the 24-well plate, an F-12 culture broth (containing 10 mM HEPES and 0.1% fetal bovine serum) (450 μL), [^3H]-Substance P (Amersham, final concentration 0.5 nM), and a test compound were added to the cells, and the mixture was incubated for 40 minutes at 37° C. For the measurement of non-specific binding, L703606 (Sigma) was added instead of the test compound. After completion of incubation, the mixture was washed with ice-cooled phosphate buffered saline containing 0.1% fetal bovine serum, and the cells were lysed with 1N NaOH (0.5 mL). The lysate was transfered to a plastic vial containing UltimaGold MV (5 mL), and the radioactivity was determined by means of a liquid liquid scintillation counter (Packard, 2000CA).
(§1) Percent radioactive ligand-receptor binding inhibition of each test compound was calculated by use of the following equation, and IC50 (nM) was determined through pseudo-Hill analysis.
(§2) Percent inhibition (%)=[1−(C−A)/(B−A)]×100
(§3) A: Radioactivity attributed to non-specific binding
(§4) B: Radioactivity without test compound
(§5) C: Radioactivity with test compound
Target sequence in this assay (P25103 whole entry): as the sequence (P25103 whole entry, species assumed) above

[4] = biological target: T3, Cloned Neurokinin Receptor Subtype 2 Human (Homo sapiens, UniProt P21452); assay: NK-2 receptor-binding experiment ([3H]-SR48968, CHO cell membranes); details: Table 4; inhibition of [3H]-SR48968 (0.85 nM) binding, pseudo-Hill analysis
T3 construct: purchased Biosignal Packard; host or cells: CHO cells
T3 sequence (P21452 1-398): T2 sequence (P21452 1-398)
Protocol: 2. NK-2 Receptor-binding Experiment
Cloned Neurokinin Receptor Subtype 2 Human (CHO cells, Biosignal Packard), [^3H]-SR48968 (Amersham, final concentration 0.85 nM), and a test compound were mixed with 20 mM HEPES buffer, and the mixture was incubated for 50 minutes at 27° C. After completion of incubation, membrane components were collected by means of an automatic filtration apparatus (Brandel) onto a GF/C glass fiber filter (Whatman).
Before use, in order to prevent non-specific binding, the glass fiber filter had been pre-treated with 0.1% polyethylene imine solution for about 4 hours.
The filter employed to collect the membrane components was transferred to a plastic vial containing UltimaGold MV (5 mL), and measured by means of a liquid scintillation counter (Packard, 2000CA) in terms of the radioactivity.
as §1, §2, §3, §4, §5

IC50 [3] [nM] | IC50 [4] [nM] | SMILES | antagonistic activity against NK-1 receptor [1] | antagonistic activity against NK-2 receptor [2]
– | – | COc1cc(C(=O)N2CCO[C@](CCN3CCCC4(C3)c3ccccc3C[S+]4[O-])(c3ccc(Cl)c(Cl)c3)C2)cc(OC)c1OC (some centres unmarked) [(D)] | excellent antagonistic activity | excellent antagonistic activity
1.2 | 1.6 | CN(CC(CCN1CCC2(CC1)c1ccccc1C[S+]2[O-])(c1ccc(Cl)c(Cl)c1)N(C)C(=O)CC(c1ccccc1)c1ccccc1)C(=O)CC(F)(F)F [Compound No. 1, N-{2-(3,4-dichlorophenyl)-2-[(3,3-diphenylpropionyl)-methylamino]-4-{spiro[benzo(c)thiophene-1(3H),4′-piperidine]-(2S)-oxide}-1′-yl-butyl}-3,3,3-trifluoro-N-methyl-propionamide hydrochloride] | – | –
4.3 | 2.1 | CC(C)C(=O)N(C)CC(CCN1CCC2(CC1)c1ccccc1C[S+]2[O-])(c1ccc(Cl)c(Cl)c1)N(C)C(=O)CC(c1ccccc1)c1ccccc1 [Compound No. 2, N-{2-(3,4-dichlorophenyl)-2-[(3,3-diphenylpropionyl)-methylamino]-4-{spiro[benzo(c)thiophene-1(3H),4′-piperidine]-(2S)-oxide}-1′-yl-butyl}-N-methyl-isobutylamide hydrochloride] | – | –
6.3 | 1.9 | CCC(=O)N(C)CC(CCN1CCC2(CC1)c1ccccc1C[S+]2[O-])(c1ccc(Cl)c(Cl)c1)N(C)C(=O)CC(c1ccccc1)c1ccccc1 [Compound No. 5, N-{2-(3,4-dichlorophenyl)-2-[(3,3-diphenylpropionyl)-methylamino]-4-{spiro[benzo(c)thiophene-1(3H),4′-piperidine]-(2S)-oxide}-1′-yl-butyl}-N-methyl-propionamide hydrochloride] | – | –
11 | 6.1 | CC(=O)NC1(c2ccccc2)CCN(CCC(CN(C)C(=O)C(F)F)(c2ccc(Cl)c(Cl)c2)N(C)C(=O)NC(c2ccccc2)c2ccccc2)CC1 (centres unmarked) [Compound No. 12, N-[4-(4-Acetylamino-4-phenyl-piperidine-1′-yl)-2-(3-benzhydryl-1-methyl-ureido)-2-(3,4-dichlorophenyl)-butyl]-2,2-difluoro-N-methyl-acetamide hydrochloride] | – | –
2.1 | 4 | CN(C[C@](CCN1CCC2(CC1)c1ccccc1C[S@+]2[O-])(c1ccc(Cl)c(Cl)c1)N(C)C(=O)C(c1ccccc1)c1ccccc1)C(=O)CC(F)(F)F [Compound No. 42, N-{2-(S)-(N-methyl-2,2-diphenylacetamide)-2-(3,4-dichlorophenyl)-4-[spiro(benzo(c)thiophene-(2S)-oxido-1(3H),4′-piperidin)-1′-yl]butyl}-3,3,3-trifluoro-N-methylpropanamido hydrochloride] | – | –
7.7 | 2.1 | CN(C[C@](CCN1CCC2(CC1)NC(=O)Cc1ccccc12)(c1ccc(Cl)c(Cl)c1)N(C)C(=O)C(c1ccccc1)c1ccccc1)C(=O)CC(F)(F)F [Compound No. 43, N-{2-(S)-(N-methyl-2,2-diphenylacetamide)-2-(3,4-dichlorophenyl)-4-[3-oxo-3,4-dihydro-2H-spiro(isoquinoline-1,4′-piperidin)-1′-yl]butyl}-3,3,3-trifluoro-N-methylpropanamido hydrochloride] | – | –
11 | 2.4 | CC(C)C(=O)N(C)C[C@](CCN1CCC2(CC1)NC(=O)Cc1ccccc12)(c1ccc(Cl)c(Cl)c1)N(C)C(=O)NC(c1ccccc1)c1ccccc1 [Compound No. 44, 1-{1-(N-methyl-isobutylamide)-2-(S)-(3,4-dichlorophenyl)-4-[3-oxo-3,4-dihydro-2H-spiro(isoquinoline-1,4′-piperidin)-1′-yl]butan-2-yl}-3-benzhydryl-1-methylureahydrochloride] | – | –
4.9 | 2.8 | CC(C)C(=O)N(C)C[C@](CCN1CCC2(CC1)c1ccccc1C[S@+]2[O-])(c1ccc(Cl)c(Cl)c1)N(C)C(=O)CC(c1ccccc1)c1ccccc1 [Compound No. 45, N-{2-(S)-(N-methyl-3,3-diphenylpropanamido)-2-(3,4-dichlorophenyl)-4-[spiro(benzo(c)thiophene-(2S)-oxido-1(3H),4′-piperidin)-1′-yl]butyl}-N-methyl-isobutylamide hydrobromide] | – | –
10.1 | 1.8 | CN(C[C@](CCN1CCC2(CC1)NC(=O)Cc1ccccc12)(c1ccc(Cl)c(Cl)c1)N(C)C(=O)NC(c1ccccc1)c1ccccc1)C(=O)C(F)(F)F [Compound No. 46, 1-{1-(2,2,2-trifluoro-N-methylacetamide)-2-(S)-(3,4-dichlorophenyl)-4-[3-oxo-3,4-dihydro-2H-spiro(isoquinoline-1,4′-piperidin)-1′-yl]butan-2-yl}-3-benzhydryl-1-methylurea sulfate] | – | –
– | – | CN(C[C@@H](CCN1CCC2(CCc3ccccc32)CC1)c1ccc(Cl)c(Cl)c1)C(=O)c1ccccc1 [compound (B), reference compound] | – | exhibits antagonistic activity only to NK-2 receptor

SMILES | IC50 [3] [nM] | IC50 [4] [nM] | antagonistic activity against NK-1 receptor [1] | antagonistic activity against NK-2 receptor [2]
CN(CC(CCN1CCC2(CC1)c1ccccc1C[S@+]2[O-])(c1ccc(Cl)c(Cl)c1)N(C)C(=O)NC(c1ccccc1)c1ccccc1)C(=O)C(F)(F)Cl (stereo partly drawn) [Compound No. 4, N-{2-(3-benzohydryl-1-methylureido)-2-(3,4-dichlorophenyl)-4-{spiro[benzo(c)thiophene-1(3H),4′-piperidine]-(2S)-oxide}-1′-yl-butyl}-2-chloro-2,2-difluoro-N-methyl-acetamide hydrochloride] | 3.4 | 1.5 | – | –
